Measured values: US4771046A, “Carbapenem derivatives” (Sankyo Company, Limited, priority 1985, dated 1988)
In brackets after ≈: the same amount, converted by molar mass.

Key:
Enterobacter cloacae 963 = experiment: Minimum inhibitory concentration, agar plate dilution method; assay type: cell-based
Description: (§1) Table 2 sets out the activities of six of the compounds of the present invention against various bacteria, in terms of their minimal inhibitory concentrations (μg/ml). These compounds are identified by the same numbers as used in Table 1 above.
(§2) Minimum Inhibitory Concentrations (μg/ml)
(§3) In the compounds used in Table 2, compounds 1, 15 and 27 have the (5R,6S) configuration, and compounds 2, 16 and 28 have the (1R,5S,6S) configuration. In all six of the compounds, the configuration of the hydroxy group in the side-chain at position 6 is (1R).

Escherichia coli 609 = experiment: as above; assay type: cell-based
Description: as §1, §2, §3

Escherichia coli NIHJ = experiment: as above; assay type: cell-based
Description: as §1, §2, §3

[1] = test system: Klebsiella pneumoniae 806; experiment: as above; assay type: cell-based
Description: as §1, §2, §3

[2] = test system: Klebsiella pneumoniae 846; experiment: as above; assay type: cell-based
Description: as §1, §2, §3

Proteus vulgaris 1420 = experiment: as above; assay type: cell-based
Description: as §1, §2, §3

Salmonella enteritidis = experiment: as above; assay type: cell-based; conditions: Salmonella enterica
Description: as §1, §2, §3

Serratia marcescens 1184 = experiment: as above; assay type: cell-based
Description: as §1, §2, §3

[3] = test system: Staphylococcus aureus 209P; experiment: as above; assay type: cell-based
Description: as §1, §2, §3

Staphylococcus aureus 56 = experiment: as above; assay type: cell-based
Description: as §1, §2, §3

mice = experiment: Toxicity in mice (survival); assay type: in vivo
dehydropeptidase I = conditions: in vivo in mammals; cited from earlier work
[4] = cited from earlier work

| SMILES | MIC (Enterobacter cloacae 963) [µg/mL] | MIC (Escherichia coli 609) [µg/mL] | MIC (Escherichia coli NIHJ) [µg/mL] | MIC [1] [µg/mL] | MIC [2] [µg/mL] | MIC (Proteus vulgaris 1420) [µg/mL] | MIC (Salmonella enteritidis) [µg/mL] | MIC (Serratia marcescens 1184) [µg/mL] | MIC [3] [µg/mL] | MIC (Staphylococcus aureus 56) [µg/mL] | dosage at which mice survive (mice; mice) | dosage at which mice survive (mice; mouse, in vivo) | inactivation by dehydropeptidase I (dehydropeptidase I) | chemical stability in the human body [4] |
| --- | --- | --- | --- | --- | --- | --- | --- | --- | --- | --- | --- | --- | --- | --- |
| C[C@@H](O)[C@H]1C(=O)N2C(C(=O)O)=C(SCC(=N)N3CCNC(=O)C3)C[C@H]12 [Compound No. 1, (5R,6S)-2-[2-(3-Oxopiperazin-1-yl)-2-iminoethylthio]-6-[(1R)-1-hydroxyethyl]-1-carbapen-2-em-3-carboxylic acid] | 0.8 (≈ 2.17 µM) | 0.4 (≈ 1.09 µM) | 0.1 (≈ 0.271 µM) | 0.2 (≈ 0.543 µM) | 0.1 (≈ 0.271 µM) | 1.5 (≈ 4.07 µM) | 0.1 (≈ 0.271 µM) | 0.2 (≈ 0.543 µM) | ≤ 0.01 | 0.05 (≈ 0.136 µM) | – | – | – | – |
| C[C@@H](O)[C@H]1C(=O)N2C(C(=O)O)=C(SCC(=N)N3CCNC(=O)C3)[C@H](C)[C@H]12 [Compound No. 2, (1R,5S,6S)-2-[2-(3-Oxopiperazin-1-yl)-2-iminoethylthio]-6-[(1R)-1-hydroxyethyl]-1-methyl-1-carbapen-2-em-3-carboxylic acid] | 0.4 (≈ 1.05 µM) | 0.05 (≈ 0.131 µM) | 0.02 (≈ 0.0523 µM) | 0.02 (≈ 0.0523 µM) | 0.05 (≈ 0.131 µM) | 0.4 (≈ 1.05 µM) | 0.05 (≈ 0.131 µM) | 0.1 (≈ 0.261 µM) | ≤ 0.01 | 0.05 (≈ 0.131 µM) | – | – | – | – |
| C[C@@H](O)[C@H]1C(=O)N2C(C(=O)O)=C(SCC(=N)N3CCN(C)C(=O)C3)C[C@H]12 [Compound No. 3, (5R,6S)-2-[2-(4-Methyl-3-oxopiperazin-1-yl)-2-iminoethylthio]-6-[(1R)-1-hydroxethyl]-1-carbapen-2-em-3-carboxylic acid] | – | – | – | – | – | – | – | – | – | – | above 2,000 mg/kg | – | – | – |
| C[C@@H](O)[C@H]1C(=O)N2C(C(=O)O)=C(SCC(=N)N3CC[C@@H](OC(N)=O)C3)C[C@H]12 [Compound No. 15, (5R,6S)-2-{2-[(3R)-3-Carbamoyloxypyrrolidin-1-yl]-2-iminoethylthio}-6-[(1R)-1-hydroxyethyl]-1-carbapen-2-em-3-carboxylic acid] | 1.5 (≈ 3.76 µM) | 0.1 (≈ 0.251 µM) | 0.1 (≈ 0.251 µM) | 0.1 (≈ 0.251 µM) | 0.05 (≈ 0.125 µM) | 1.5 (≈ 3.76 µM) | – | 0.1 (≈ 0.251 µM) | ≤ 0.01 | 0.02 (≈ 0.0502 µM) | above 2,000 mg/kg | – | – | – |
| C[C@@H](O)[C@H]1C(=O)N2C(C(=O)O)=C(SCC(=N)N3CC[C@@H](OC(N)=O)C3)[C@H](C)[C@H]12 [Compound No. 16, (1R,5S,6S)-2-{2-[(3R)-3-Carbamoyloxypyrrolidin-1-yl]-2-iminoethylthio}-6-[(1R)-1-hydroxyethyl]-1-methyl-1-carbapen-2-em-3-carboxylic acid] | 0.8 (≈ 1.94 µM) | 0.1 (≈ 0.242 µM) | 0.05 (≈ 0.121 µM) | 0.05 (≈ 0.121 µM) | 0.1 (≈ 0.242 µM) | 3.1 (≈ 7.52 µM) | – | 0.1 (≈ 0.242 µM) | ≤ 0.01 | 0.05 (≈ 0.121 µM) | – | – | – | – |
| C[C@@H](O)[C@H]1C(=O)N2C(C(=O)O)=C(SCC(=N)N3CCC(=NO)CC3)C[C@H]12 [Compound No. 27, (5R,6S)-2-[2-(4-Hydroxyiminopiperidin-1-yl)-2-iminoethylthio]-6-[(1R)-1-hydroxyethyl]-1-carbapen-2-em-3-carboxylic acid] | 0.8 (≈ 2.09 µM) | 0.1 (≈ 0.261 µM) | 0.1 (≈ 0.261 µM) | 0.1 (≈ 0.261 µM) | 0.05 (≈ 0.131 µM) | 0.8 (≈ 2.09 µM) | – | 0.1 (≈ 0.261 µM) | ≤ 0.01 | 0.02 (≈ 0.0523 µM) | – | above 2,000 mg/kg | – | – |
| C[C@@H](O)[C@H]1C(=O)N2C(C(=O)O)=C(SCC(=N)N3CCC(=NO)CC3)[C@H](C)[C@H]12 [Compound No. 28, (1R,5S,6S)-2-[2-(4-Hydroxyiminopiperidin-1-yl)-2-iminoethylthio]-6-[(1R)-1-hydroxyethyl]-1-methyl-1-carbapen-2-em-3-carboxylic acid] | 0.4 (≈ 1.01 µM) | 0.1 (≈ 0.252 µM) | 0.02 (≈ 0.0504 µM) | 0.05 (≈ 0.126 µM) | 0.05 (≈ 0.126 µM) | 1.5 (≈ 3.78 µM) | – | 0.1 (≈ 0.252 µM) | ≤ 0.01 | 0.05 (≈ 0.126 µM) | – | – | – | – |
| C[C@@H](O)[C@H]1C(=O)N2C(C(=O)O)=C(SCCN)C[C@H]12 [thienamycin, 2-(2-aminoethylthio)-6-(1-hydroxyethyl)carbapen-2-em-3-carboxylic acid] | – | – | – | – | – | – | – | – | – | – | – | – | inactivated in vivo in mammals by dehydropeptidase I | poor |
